The values that follow come from patent US10316008B2, “KCNQ potassium channel agonist, and preparation method therefor and use thereof” (SHANGHAI INSTITUTE OF MATERIA MEDICA, CHINESE ACADEMY OF …, priority 2014, dated 2019).

Where a name gives a salt, the structure may show the parent alone.

For series [1], the target named is T1, KCNQ2 homotetramer channel (Homo sapiens, UniProt O43526).
T1 construct: expressed in transfected cells; host or cells: CHO-K1
Put plainly: KCNQ2 channel dose-response curve in CHO-K1 cells transfected with KCNQ2 plasmid. It is filed as cell-based. As for the experimental part:
The culture medium for Chinese hamster oocytes (CHO-K1) (Culture Collection of Chinese Academy of Sciences): 50/50 DMEM/F-12 (Cellgro, Manassas, Va.), added with 10% fetal bovine serum (FBS) (Gibco, Australia) and 2 mM L-glutamic acid (Invitrogen). Expression of KCNQ channels: 24 h before transfection, CHO-K1 spreaded on a dish with a diameter of 60 mm. Lipofectamine 2000™ agent (Invitrogen) was used for Transfection according to the protocol thereof. GFP (green fluorescent protein) was cotransfected to be used as a indication of successful converting into KCNQ plasmid.
(§1) Whole-cell voltage-clamp recording was performed on an Axopatch-200B amplifier (Molecular Devices, Sunnyvale, Calif.) at room temperature. The electrode was made by drawing borosilicate glass capillary (World Precision Instruments, Sarasota, Fla.). The electric resistance of the electrode filled with an intracellular fluid is 3 to 5 MΩ. The composition of the intracellular fluid (1 L) was as follows: 145 mM KCl(Sigma), 1 mM MgCl2(Sigma), 5 mM EGTA(Sigma), 10 mM HEPES(Sigma) and 5 mM MgATP(Sigma) (pH was adjusted to 7.3 with KOH). During the recording, an extracellular fluid was continuously perfused by using a BPS perfusion system (ALA Scientific Instruments, Westburg, N.Y.). The composition of the extracellular fluid (1 L) was as follows: 140 mM NaCl(Sigma), 5 mM KCl(Sigma), 2 mM CaCl2(Sigma), 1.5 mM MgCl2(Sigma), 10 mM HEPES(Sigma) and 10 mM glucose(Sigma) (pH was adjusted to 7.4 with NaOH). Electric signal was filtered at 1 kHz and further converted into digital signal by using pClamp 9.2 software (Molecular Devices, Sunnyvale, Calif.) in DigiData 1322A. Series resistors compensate 60 to 80%. Up to date, multivoltage scheme was generally adopted, wherein the clamp voltage was set at −80 mV, stimulating voltage was a gradient voltage from −90 mV to 60 mV with interval of 10 mV, and the stimulating time for each voltage was 2000 ms.
The experimental procedure was the same as that in Electrophysiological Example 1. […]

Series [2] deals with convulsive mice induce by MES. Nature of the series: MES (maximum electroshock) induced convulsion model, oral perfusion. It is filed as in vivo, KM mice. The settings on record: Mus musculus, 0.5 h; mice, oral perfusion, MES 30 mins after administration; read-out: ED50 (50% effective dose). The text has this: YLS-9A model physiological pharmaceutical electronic stimulator was used in the experiment to induce convulsion of mice, and specific parameters were set as follows: configuration 8, stimulating voltage: 160V, period of stimulation: 5.4 sec. Healthy KM mice (SPF level, male, body weight: 18 to 22 g) were selected for the experiment. After the ear tip of the mice was sufficiently wetted with physiological saline, the mice was electrically stimulated once with ear clip electrode, and tonic hind-limb seizure was deemed as indication of convulsion. The mice were screened one day before the experiment to weed out the dead mice and the ones without generalized tonic seizure. The qualified mice were caged randomly with access to water at liberty. Before the experiment started, the mice were fasted for 8 h.
The compounds to be tested were freshly formulated on the day of experiment. RTG hydrochloride was dissolved with ultrapure water to obtain a solution with desired concentration. K41.HCl and K43.HCl were formulated with 5% DMSO+95% of 1% Tween80, that is, a proper amount of the compound to be tested was weighted and, first, sufficiently dissolved in 5% DMSO, and then added with a desire volume of 1% Tween80 to be sufficiently suspended to form a suspension with a certain drug concentration. The mice screened one day before were randomly grouped with each group having 10 mice, marked, weighted and then administered with the compound to be tested or solvent (5% DMSO+95% (1% Tween 80)) by oral perfusion with administered volume of 0.2 ml/10 g. The dose range for each compound was 1 to 56 mg/kg for RTG, 1 to 40 mg/kg for K41.HCl, and 0.5 to 4 mg/kg for K43.HCl. 30 mins after administration, MES experiment was performed and the experimental parameters were the same as the above. The number of mice with generalized tonic-clonic convulsion in each group was recorded, the protection rate of each of the compounds to be tested on convulsive mice induce by MES was calculated and dose-response curve for each compound was plotted. The dose-response curve for each compound was obtained according to the analysis of Graphpad Prism 5 software, as shown in FIG. 3.

A short description of series [3]: Rotarod experiment, motor coordination ability (acute neurotoxicity). Type of series: in vivo, KM mice. Particulars: both sexes, KM, mouse, in vivo; mice, oral perfusion, Rotarod 30 mins after administration; read-out: TD50 (50% acute neurotoxicity dose). As for the experimental part: (§2) YLS-4C Rotarod system was used in the experiment, wherein the diameter of the rod was 3 cm and the rotate speed was set at 6 rpm. Healthy KM mice (SPF level) were selected, wherein male and female were equal, the body weight was 18 to 22 g. One day before experiment, the mice were place on the rotarod for training and screening. The tail tip of mice was held to make them creep on the rotarod during the training. […] The mice that jumped on the rotarod or griped the rotarod were weed out. In addition, three time periods were set with 1 min for each. […] The qualified mice were randomly caged according to the gender, and allowed to eat and drink freely.
(§3) On the day of the experiment, each compound to be tested was freshly formulated by the same method as described in MES experiment. If the compound was not sufficiently suspended, the suspension was further mixed by ultrasonication for 20 min so as to make the compound sufficiently suspended. […] 30 mins after administration, Rotarod experiment was performed and the experiment parameters were the same as the above. The number of mice that fell off from the rorarod was recorded, and the influence of each compound on motor coordination ability of mice was analyzed. The curve for dose of each compound verse motor deficit (percentage) of mice for each compound was obtained according to the analysis of Graphpad Prism 5 software and was shown in FIG. 4.
For orientation: Falling from the rotarod earlier than controls is read as motor impairment.

Series [4] deals with motor coordination ability of mice. The description is as above. Type of series: in vivo, KM mice. The settings on record: TD50 Rotarod / ED50 MES. The method, then:
as §2, §3

For series [5] the following is noted: data from FDA Pharmacology Review(s), Potiga tablets; cited from earlier work.
Series [6] in a line: Stability of solution exposed to air. Particulars: solution exposed to air (aqueous solution for RTG hydrochloride).
The test system of another series is KCNQ potassium channel. Put plainly: Whole-cell voltage-clamp recording in CHO-K1 cells transfected with KCNQ plasmid. Particulars: for I/I0: current enhancement factor, −10 mV testing voltage, compound concentration 10 μM, >1 activating, <1 inhibiting; for ΔV1/2: shift of V1/2, negative sign = left-ward shift of current activation curve, compound 10 μM, CHO-K1 cells. Type of series: cell-based. The method, then: The culture medium for Chinese hamster oocytes (CHO-K1) (Culture Collection of Chinese Academy of Sciences): 50/50 DMEM/F-12 (Cellgro, Manassas, Va.), added with 10% fetal bovine serum (FBS) (Gibco, Australia) and 2 mM L-glutamic acid (Invitrogen). […] Lipofectamine 2000™ agent (Invitrogen) was used for Transfection according to the protocol thereof. GFP (green fluorescent protein) was cotransfected to be used as a indication of successful converting into KCNQ plasmid.
as §1, with “The composition of the intracellular fluid (1 L) was as follows: 145 mM KCl(Sigma), 1 mM MgCl2(Sigma), 5 mM EGTA(Sigma), 10 mM HEPES(Sigma) and 5 mM MgATP(Sigma) (pH was adjusted to 7.3 with KOH).” left out, “Electric signal was filtered at 1 kHz and further converted into digital signal by using pClamp 9.2 software (Molecular Devices, Sunnyvale, Calif.) in DigiData 1322A.” left out
V1/2 is the voltage at which 50% of cells were activated, ΔV1/2 is the shift amount of V1/2, negative sign (−) represents a left-ward shift of the current activation curve. I/I0 represents the current enhancement factor, wherein, I0 is the maximum induced current produced under stimulation of −10 mV testing voltage after administrating cells with blank extracellular fluid, I is the maximum induced current produced under stimulation of −10 mV testing voltage after administrating the drug (the compound concentration was 10 μM), I/I0>1 represents activating activity, and I/I0<1 represents inhibiting activity. N is the number of tested cells. NT represents non-tested.

T1 sequence (O43526 whole entry): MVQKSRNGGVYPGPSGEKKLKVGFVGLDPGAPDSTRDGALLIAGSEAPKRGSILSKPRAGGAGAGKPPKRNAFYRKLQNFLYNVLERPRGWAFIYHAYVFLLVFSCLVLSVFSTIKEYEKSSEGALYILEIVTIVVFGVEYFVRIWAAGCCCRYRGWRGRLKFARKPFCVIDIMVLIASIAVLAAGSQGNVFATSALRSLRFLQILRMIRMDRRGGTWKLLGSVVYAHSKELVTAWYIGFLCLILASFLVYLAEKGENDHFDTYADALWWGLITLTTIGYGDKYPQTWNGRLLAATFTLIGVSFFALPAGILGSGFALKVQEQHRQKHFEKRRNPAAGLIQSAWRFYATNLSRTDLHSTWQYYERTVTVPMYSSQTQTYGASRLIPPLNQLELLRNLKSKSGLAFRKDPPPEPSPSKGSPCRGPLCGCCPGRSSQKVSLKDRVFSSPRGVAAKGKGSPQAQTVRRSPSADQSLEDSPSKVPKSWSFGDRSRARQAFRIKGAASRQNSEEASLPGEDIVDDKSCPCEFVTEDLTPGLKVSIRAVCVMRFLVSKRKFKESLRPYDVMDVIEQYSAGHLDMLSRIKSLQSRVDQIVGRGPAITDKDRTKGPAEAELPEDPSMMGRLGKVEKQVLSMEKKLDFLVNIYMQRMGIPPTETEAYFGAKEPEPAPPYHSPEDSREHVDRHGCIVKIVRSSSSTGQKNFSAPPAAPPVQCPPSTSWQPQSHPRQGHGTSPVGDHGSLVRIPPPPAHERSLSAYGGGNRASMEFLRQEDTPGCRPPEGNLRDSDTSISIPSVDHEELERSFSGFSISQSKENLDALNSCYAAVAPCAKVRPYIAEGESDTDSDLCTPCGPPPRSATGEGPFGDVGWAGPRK

As for `CCOC(=O)Nc1ccc(NCc2ccc(F)cc2)cc1N` [RTG, retigabine, reference compound], a half-maximal response in series [1] (EC50) required 1320 nM. The ED50 in series [2] was 21.8 mg/kg. Also, the TD50 at 30 min in series [3] stood at 74.2 mg/kg. Further, the “P.I (Protective index)=TD50/ED50” value in series [4] is on record as 3.40. Moreover, the reported lethal dose in series [5] is 100 mg/kg. Besides, the “stability of solution exposed to air” value in series [6] is “quickly become blue and insoluble precipitate is formed”.

On to `C#CCN(Cc1ccc(F)cc1)c1ccc(NC(=S)OC)cc1` [K49•HCl, methyl 4-(N-parafluorobenzyl-N-propargyl-amino) phenylaminothioformate], for which, in the series with KCNQ potassium channel, the I/I0 was found to be 4.4 ± 1.6 and the ΔV1/2 was −22 ± 2.5 mV.

With `C#CCN(Cc1ccc(F)cc1)c1ccc(NC(=O)OC)c(OC(F)(F)F)c1` [K48•HCl], in the series on KCNQ potassium channel, the I/I0 is recorded as 1.24 ± 0.16 and the ΔV1/2 is reported as −13.2 ± 1.5 mV.

`C#CCN(Cc1ccc(F)cc1)c1ccc(NC(=O)C2CCC(F)(F)CC2)cc1` [K58•HCl]: in the series on KCNQ potassium channel, the I/I0 is given as 1.78 ± 0.19 and the ΔV1/2 is −33.68 ± 1.05 mV.

As to `C#CCN(Cc1ccc(F)cc1)c1ccc(NC(=O)C2CCCO2)cc1` (stereo not shown) [K54•HCl], in the series on KCNQ potassium channel, the I/I0 is on record as 7.55 ± 1.92 and the ΔV1/2 is −30.9 ± 4.1 mV.

Regarding “methyl 4-(N-parafluorobenzyl-N-3-cyclopropyl propargyl-amino) phenylaminothioformate [K59•HCl]”, in the series on KCNQ potassium channel, the I/I0 came to 1.01 ± 0.13 and the ΔV1/2 was −0.14 ± 2.33 mV.

As to `C#CCN(Cc1ccc(F)cc1)c1ccc(NC(=O)OC)c(C#N)c1` [K42•HCl], in the series on KCNQ potassium channel, the I/I0 amounted to 0.52 ± 0.01 and the ΔV1/2 was −5.2 ± 0.7 mV.

Regarding `C#CCN(Cc1ccc(F)cc1)c1c(C)cc(NC(=O)OC)cc1C` [K44•HCl], in the series with KCNQ potassium channel, the I/I0 is 0.72 ± 0.05 and the ΔV1/2 is on record as 13.47 ± 2.13 mV.

For `C#CCN(Cc1ccc(F)cc1)c1ccc(NC(=O)N(C)OC)cc1` [K51•HCl], in the series on KCNQ potassium channel, the I/I0 stood at 1.61 ± 0.08 and the ΔV1/2 was −8.89 ± 1.12 mV.

As to `C#CCN(Cc1ccc(F)cc1)c1ccc(NC(=O)OC)c(OC)c1` [K46•HCl], in the series with KCNQ potassium channel, the I/I0 worked out at 1.52 ± 0.55 and the ΔV1/2 is recorded as −6.5 ± 2.1 mV.

With `C#CCN(Cc1ccc(F)cc1)c1ccc(NC(=O)COC)cc1` [K52•HCl, N-[4-(N-p-fluorobenzyl-N-propargyl-amino)-phenyl]-2-methoxyacetamide], in the series with KCNQ potassium channel, the I/I0 is 5.80 ± 0.52 and the ΔV1/2 was −10.93 ± 1.86 mV.

`C#CCN(Cc1ccc(F)cc1)c1ccc(NC(=O)CN(C)C)cc1` [K55•HCl]: in the series with KCNQ potassium channel, the I/I0 amounted to 1.72 ± 0.14 and the ΔV1/2 was −10.76 ± 4.51 mV.

On to `C#CCN(Cc1ccc(F)cc1)c1ccc(NC(=O)OC)cc1C` [K40•HCl], for which, in the series on KCNQ potassium channel, the I/I0 turned out to be 1.40 ± 0.04 and the ΔV1/2 is reported as −3.42 ± 1.54 mV.

For the compound `C#CCN(Cc1ccc(F)cc1)c1ccc(NC(=O)CC(=O)OC)cc1` [K57•HCl], in the series on KCNQ potassium channel, the I/I0 turned out to be 8.13 ± 2.57 and the ΔV1/2 is reported as −31.55 ± 0.86 mV.

Consider `[2H]C([2H])(C#C)N(Cc1ccc(F)cc1)c1ccc(NC(=S)OC)cc1` [K47•HCl, methyl 4-(N-parafluorobenzyl-N-3,3-dideuteriumpropargyl-amino)phenylaminothioformate], for which, in the series on KCNQ potassium channel, the I/I0 is on record as 2.10 ± 0.08 and the ΔV1/2 is given as −18.10 ± 0.03 mV.

Turning to `C#CCN(Cc1ccc(F)cc1)c1ccc(NC(=O)CNC(C)=O)cc1` [K56•HCl], in the series with KCNQ potassium channel, the I/I0 is reported as 1.10 ± 0.10 and the ΔV1/2 was −2.0 ± 1.3 mV.

As to `C#CCN(Cc1ccc(F)cc1)c1ccc(NC(=O)COCC)cc1` [K53•HCl], in the series on KCNQ potassium channel, the I/I0 is recorded as 7.31 ± 1.09 and the ΔV1/2 is −14.81 ± 0.92 mV.

For `C#CCN(Cc1ccc(F)cc1)c1ccc(NC(=O)OC)cc1OC` [K45•HCl], in the series with KCNQ potassium channel, the I/I0 worked out at 0.57 ± 0.01 and the ΔV1/2 is listed as −5.1 ± 0.9 mV.

A word on the EC50: it is the concentration giving half of the maximal effect. As usually defined, the ED50 is the dose at which the effect has come halfway, by size or by number of responders. Usually TD50 stands for the dose at which the toxic effect under study appears in half of the subjects.
